Tested on: Radical scavenging activity
Assay: Antioxidant activity assessed as DPPH radical scavenging activity
Format: functional

EC50 [µM] | SMILES
10 | CCC1=C(O)C(=O)c2c(O)c(O)c(O)c(O)c2C1=O [ECHINOCHROME A]
10 | CCc1c(O)c(O)c2c(c1O)C(=O)C(N)=C(O)C2=O [ECHINAMINE B]
10 | O=C1C(O)=C(O)C(=O)c2c(O)c(O)cc(O)c21 [SPINOCHROME D]
10 | CCc1c(O)c(O)c2c(c1O)C(=O)C(O)=C(N)C2=O [ECHINAMINE A]

Reference: ChEMBL document CHEMBL1158811, “Echinamines A and B, first aminated hydroxynaphthazarins from the sea urchin Scaphechinus mirabilis” (J Nat Prod, 2005)
